From patent US20240009168A1 (Cognition Therapeutics, Inc., priority 2020, published 2024)

What was measured:
RPE cell cultures [1] = assay: Autophagy assays: POS trafficking, colocalization of POS with LC3B; assay type: cell-based
Procedure: FIGS. 2A and 2B depict photoreceptor outer segment trafficking after treatment with Abeta oligomers in the presence or absence of sigma 2 receptor modulators (FIG. 2A=Compound A and Compound C; FIG. 2B=Compound B).
FIGS. 3A and 3B depict photoreceptor outer segment trafficking after treatment with an oxidative stressor in the presence or absence of sigma 2 receptor modulators (FIG. 3A=Compound A and Compound C; FIG. 3B=Compound B).
Autophagy Assays: Autophagy assays were performed in accordance with Klionsky et al., “Guidelines for the Use and Interpretation of Assays for Monitoring Autophagy,” (4th edition) Autophagy 2021; 17:1-382, which is hereby incorporated by reference in its entirety. RPE cultures were treated with human oligomeric Aβ in either the presence or absence of compounds of the invention. POS trafficking was measured over time after the addition of POS to RPE cell cultures. Stressors included addition of Aβ oligomers or H2O2 for 12 to 48 hours. […] This process was disrupted by addition of stressors such as Aβ oligomers (FIGS. 2A and 2B) or oxidative stress (FIGS. 3A and 3B).

RPE cell cultures [2] = assay: Quantification of an autophagy related protein after oxidative stressor; assay type: cell-based; settings: after oxidative stressor (FIG. 4)
Description: FIG. 4 depicts quantification of an autophagy-related protein after oxidative stress by an oxidative stressor in the presence or absence of sigma-2 receptor modulators.
Oxidative stressors are associated with pathology in AMD with changes seen in autophagy associated proteins. Application of an oxidative stressor caused increased expression of an autophagy related protein acutely (FIG. 4).

sigma-2 receptors = molecular target: T1, sigma-2 receptors (Mus musculus, UniProt Q8VD00); assay: Drug concentration in plasma, brain and retina; assay type: in vivo
T1 sequence (Q8VD00 1-176): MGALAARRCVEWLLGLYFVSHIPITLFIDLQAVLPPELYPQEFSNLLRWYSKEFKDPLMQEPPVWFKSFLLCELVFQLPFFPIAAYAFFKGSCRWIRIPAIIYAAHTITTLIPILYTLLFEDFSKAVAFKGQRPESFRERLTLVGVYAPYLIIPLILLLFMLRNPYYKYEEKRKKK
Procedure: FIG. 6 depicts quantification of the concentration of the sigma-2 receptor modulator Compound A in mouse plasma, brain, and retina.
FIG. 7 depicts quantification of the concentration of the sigma-2 receptor modulator, Compound B, in mouse plasma, brain and retina.
Following a single oral administration of [14C]-Compound A to a rat, autoradiography was performed to determine tissue distribution. […] Receptor occupancy exceeding 80% confers efficacy in vivo. Drug concentration in the brain (cerebellum), retina, and plasma were also measured. […] Similarly, following a single orally administered dose, Compound B was found in concentrations that exceeded 80% receptor occupancy at sigma-2 receptors in the retina and plasma and approximately 50% occupancy in the brain (FIG. 7).

retinal ganglion cells [3] = assay: In vivo model of glaucoma: pattern electroretinogram (PERG); settings: p<0.05 (FIGS. 9A and 9B)
Description: FIGS. 9A and 9B depict quantification of electrical activity in retinal ganglion cells in an in vivo model of glaucoma in the presence or absence of sigma-2 receptor modulator.
(§1) In vivo models of glaucoma (Shah, M., et al., “Translational Preclinical Pharmacologic Disease Models for Opthalmic Drug Development,” Development. Pharm. Res. 36(4): 58 (2019); which is hereby incorporated by reference in its entirety) were used to test the utility of sigma-2 receptor modulators.
Glaucoma can cause perturbations in the electrical activity of the retina. To measure the electrical activity, a pattern electroretinogram (PERG) measure electrical activity of the retina in response to a test stimulus, such as a reversing checkerboard. PERG is a noninvasive, direct, and objective method to assess retinal ganglion cell function. An in vivo model of glaucoma causes a functional deficit in retinal ganglion cells (injured vs. naïve), resembling what is seen in patients with glaucoma and other retinal diseases.

retinal ganglion cells [4] = assay: In vivo model of glaucoma: retinal ganglion cell counts; settings: p<0.05 (FIG. 8)
Description: FIG. 8 depicts quantification of retinal ganglion cell density in an in vivo model of glaucoma in the presence or absence of sigma-2 receptor modulator.
as §1
To test whether sigma-2 receptor modulators can rescue cell death, in vivo models were used to cause cell death of retinal ganglion cells, resembling what is seen in patients with glaucoma and other retinal diseases.

[5] = oxidative stress, H2O2 (FIGS. 3A and 3B)
[6] = stressor Aβ oligomers (FIGS. 2A and 2B)

SMILES	POS trafficking into autophagosomes (colocalization of POS with LC3B) (RPE cell cultures [1]; [5])	POS trafficking into autophagosomes (colocalization of POS with LC3B) (RPE cell cultures [1]; [6])	expression of an autophagy related protein (RPE cell cultures [2])	concentration in the retina relative to brain (cerebellum) and plasma (sigma-2 receptors; mouse (FIG. 6))	retinal ganglion cell function (PERG electrical activity) (retinal ganglion cells [3])	occupancy at sigma-2 receptors in the brain (sigma-2 receptors; mouse (FIG. 7), single orally administered dose)	retinal ganglion cell counts (retinal ganglion cells [4])
CC(C)(C)Oc1cc(CCC(C)(C)N2Cc3ccc(S(C)(=O)=O)cc3C2)ccc1O [Compound A]	restored normal trafficking into autophagosomes after stress	restored normal trafficking into autophagosomes after stress	prevented the increase in this autophagy related protein	higher than the concentration in the brain or plasma	preserves retinal ganglion cell function	–	–
CC(C)=C[C@@H](CC(C)(C)c1ccc(C(F)(F)F)cc1)N1CCC(C2CCOCC2)CC1 [Compound C]	restored normal trafficking into autophagosomes after stress	restored normal trafficking into autophagosomes after stress	prevented the increase in this autophagy related protein	–	–	–	–
CC1(O)CCN(CCC(C)(C)c2ccc(C(F)(F)F)cc2)CC1 [Compound B]	–	–	–	–	–	approximately 50%	significantly preserved retinal ganglion cells counts
